Activity calls are given as the source filed them. The rule behind the calls is not given here.
Test system: U-937
Experiment: Induction of apoptosis in human U937 cells
Format: functional, cell-based

Structure (SMILES) | Activity
NCCCOc1c(Br)cc(CCN)cc1Br | inactive
N#CC(=O)NCCCOc1c(Br)cc(C(O)CN)cc1Br (centres undefined) | inactive
C[N+](C)(C)CCc1cc(Br)c(O)c(Br)c1 | inactive
N#CC(=O)NCCCOc1c(Br)cc(CCN)cc1Br | inactive

Source: ChEMBL document CHEMBL1144079, “7-Hydroxyceratinamine, a new cyanoformamide-containing metabolite from a sponge, Aplysinella sp” (J Nat Prod, 1999)
